# In PubChem BioAssay (NCI):
# Several values for one entry are separate records, joined by “and”; a condition that tells them apart may be missing. Equal entries are not always repeated.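 1) Cells in 96-well plates. 2) Compound, 48 h, 5 concentrations. 3) Linear interpolation between surrounding doses. 4) Unreached endpoint = highest concentration. GI50: concentration for 50% inhibition of growth. TGI: concentration producing complete growth inhibition.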
# Tests used:
# Assay in all cases: DTP human tumour cell line panel, 48 h
# [1] = tested on: NCI-H522 lung
# [2] = tested on: K-562 leukemia
# [3] = tested on: CCRF-CEM leukemia
# [4] = tested on: OVCAR-4 ovarian
# [5] = tested on: SNB-19 CNS
# [6] = tested on: HCT-116 colon
# [7] = tested on: SF-539 CNS
# [8] = tested on: MDA-MB-231 breast
# [9] = tested on: HS 578T breast
# [10] = tested on: BT-549 breast
Compound,GI50 [1],TGI [1] [µM],GI50 [2],TGI [2],GI50 [3],TGI [3] [µM],GI50 [4],TGI [4] [µM],GI50 [5],TGI [5] [µM],GI50 [6],TGI [6] [µM],GI50 [7] [µM],TGI [7],GI50 [8],TGI [8],GI50 [9] [µM],TGI [9] [µM],GI50 [10] [µM],TGI [10] [µM]
CS(=O)(=O)c1ccc(-c2[nH]c3ccc(F)cc3c2/C=N/NC(N)=S)cc1,0.466 µM,3.75,0.532 µM,41.2 µM,0.366 µM,27.2,13.4 µM,> 100,1.31 µM,> 100,0.437 µM,> 100,1.3,> 100 µM,1.65 µM,> 100 µM,0.293,7.74,1.61,34.4
Cc1cccc2c1NC(=O)C2(c1ccc(O)cc1)c1ccc(O)cc1,12.6 µM,33.4,19.1 µM,99.5 µM,22.3 µM,> 100,< 0.01 µM,< 0.0174,28.5 µM,> 100,11.3 µM,25.5,17.7,45.8 µM,13.3 µM,33.3 µM,< 0.01,< 0.0192,< 0.01,
CNc1ccc(C(=O)CC(O)CCC(C)C2OC(=O)CC(O)CC(=O)CC(O)CC(O)CC(O)CC(O)CC3(O)CC(O)C(C(=O)NCCc4ccccn4)C(CC(OC4OC(C)C(O)C(N)C4O)/C=C/C=C/C=C/C=C\C=C/C=C/C=C/C2C)O3)cc1 (stereo not drawn),4.21 µM,> 50,2.43 µM,> 20.5 µM,1.77 µM,> 50,0.868 µM,> 50,14.8 µM,> 50,0.741 µM,> 50,2.73,> 50 µM,6.23 µM,> 21.2 µM,0.489,2.61,1.27,> 50
O=C(Nc1ccc(O)c(NS(=O)(=O)c2ccc(F)cc2)c1)c1ccc(-c2ccccc2)cc1,2.27 µM,8.7,3.68 µM,14.6 µM,2.96 µM,13,4.45 µM,25.3,14.4 µM,34.2,5.12 µM,20.7,8.93,22.4 µM,6.15 µM,20.4 µM,5.42,31.8,4.6,20.2
COc1cc(C(=O)Nc2cc(O)c(C/C=C(\C)CCC=C(C)C)c(O)c2)cc2c1O[C@]1(C)CC[C@@H](O)C(C)(C)[C@H]1C2,7 µM and 1.29 µM,11.6,0.0359 µM and 0.0659 µM,2.17 µM and 2.6 µM,0.0438 µM and 0.0384 µM,> 22.7,5.3 µM and 3.14 µM,32,3.28 µM and 1.9 µM,26.4,0.143 µM and 0.185 µM,7.11,0.00623,0.411 µM and 0.658 µM,1.01 µM and 0.461 µM,5.53 µM and 5.34 µM,0.0144,14.8,,5.23
CCCC(=O)Nc1ncnc2c1ncn2C1OC2COP(=O)(O)OC2C1OC(=O)CCC (stereo not drawn),> 1000 µM,> 1000,> 1000 µM,> 1000 µM,,> 1000,> 1000 µM,> 1000,> 1000 µM,> 1000,> 1000 µM,> 1000,,> 1000 µM,,> 1000 µM,,> 1000,,> 1000
